Results as given in patent publication US20220054448A1, “NOVEL POLYMETH[…] FOR SKELETAL MUSCLE MODULATION, METHODS AND USES THEREOF” (SOCIETE DES PRODUITS NESTLE S.A., priority 2018, published 2022).

System: Muscle Stem Cells
Assay: In vivo muscle regeneration after intramuscular cardiotoxin injury
Conditions: mouse, oral gavage 100 mg/kg body weight once a day from one week before cardiotoxin injury; muscles harvested 5 days after injury; versus water control
Procedure: FIG. 5—In Vivo Muscle Regeneration: Measurement of Early Phase Expansion and Differentiation of Muscle Stem Cells
Early phase of expansion and subsequent phase of myogenic differentiation of Muscle Stem Cells were evaluated.
Data are expressed as number of cells per area of injured muscle.
The size of each newly formed myofiber has been measured based on the expression of the eMHC and laminin that allow to recognize and delineate these nascent myofibers. Results are shown as mean myofiber cross-sectional area (μm^2).
In order to reproduce the physiological process of muscle regeneration that occurs in adult skeletal muscles in response to injury or disease, we performed an intramuscular injection of cardiotoxin into mouse hindlimb muscles. One week prior to the induction of the muscle injury, mice were given by oral gavage compounds of the invention; either cirsimaritin or xanthomicrol at 100 mg/kg body weight and water was used as a control. […] Several myogenic markers were then measured. […]
In particular, this is shown be the early phase of expansion evaluated by counting the number of Pax7+ cells shown in FIG. 5A and the subsequent phase of myogenic differentiation of Muscle Stem Cells measured by counting the number of myogenin+ cells shown in FIG. 5B, respectively. Data were expressed as number of cells per arear of injured muscle. […]

SMILES | in vivo muscle regeneration process (number of Pax7+ cells, number of myogenin+ cells, size of newly formed myofibers)
COc1cc2oc(-c3ccc(O)cc3)cc(=O)c2c(O)c1OC [Cirsimaritin, 5,4′-Dihydroxy-6,7-dimethoxyflavone] | promote the in vivo muscle regeneration process
COc1c(OC)c(O)c2c(=O)cc(-c3ccc(O)cc3)oc2c1OC [Xanthomicrol, 5,4′-Dihydroxy-6,7,8-trimethoxyflavone] | promote the in vivo muscle regeneration process
